Source: ChEMBL document CHEMBL5604063, “ASAP - DENV-2 NS2B-NS3 protease fluorescence dose response” (2024)
Values joined by “and” are separate entries in the source; they are usually repeats but may differ in a detail not shown here. Identical values can stand only once.

Key:
[1] = molecular target: T1, Genome polyprotein (dengue virus type 2, UniProt P29990); format: functional, Thailand/16681/1984
[2] = molecular target: T1, Genome polyprotein; format: functional, Thailand/16681/1984; remark: listed apart in the source

T1 sequence (P29990 1346-1475 limits assumed): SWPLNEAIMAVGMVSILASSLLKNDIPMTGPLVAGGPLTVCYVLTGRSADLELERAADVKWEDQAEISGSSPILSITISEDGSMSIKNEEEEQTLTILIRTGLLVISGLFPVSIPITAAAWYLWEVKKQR
T1 sequence (P29990 1476-2093 limits assumed): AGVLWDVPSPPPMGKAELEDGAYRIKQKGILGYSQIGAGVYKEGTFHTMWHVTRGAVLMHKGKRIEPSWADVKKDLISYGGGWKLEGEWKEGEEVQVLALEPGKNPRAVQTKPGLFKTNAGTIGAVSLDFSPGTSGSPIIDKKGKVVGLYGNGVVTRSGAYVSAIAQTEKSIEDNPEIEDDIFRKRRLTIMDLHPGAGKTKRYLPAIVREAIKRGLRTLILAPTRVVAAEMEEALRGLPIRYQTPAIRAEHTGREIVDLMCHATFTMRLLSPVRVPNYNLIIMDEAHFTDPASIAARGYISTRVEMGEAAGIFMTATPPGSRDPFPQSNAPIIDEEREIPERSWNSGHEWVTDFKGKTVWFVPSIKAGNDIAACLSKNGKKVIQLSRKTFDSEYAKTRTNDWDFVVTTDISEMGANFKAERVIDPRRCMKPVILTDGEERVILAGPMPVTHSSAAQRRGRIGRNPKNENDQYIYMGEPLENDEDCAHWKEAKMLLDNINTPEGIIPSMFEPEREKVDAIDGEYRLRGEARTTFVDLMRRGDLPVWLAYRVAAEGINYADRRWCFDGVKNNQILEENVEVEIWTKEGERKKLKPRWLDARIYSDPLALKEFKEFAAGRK

SMILES	IC50 [1]	IC50 [2]
CO[C@]1(C)C(=O)Nc2cc(F)cc(C(=O)Nc3ccc4c(c3)CNC4)c21	> 99.5 µM	> 100 µM
CCNC(=O)Nc1cc(Cl)cc(C(=O)Nc2cc(C)cc(CN)c2)c1	> 99.5 µM	> 100 µM
CC(C)CC(=O)N1CCC([C@H](NC(=O)OCc2ccccc2)C(=O)Nc2cccc(CN)c2)CC1	> 99.5 µM	> 100 µM
NC[C@H]1C[C@@H](CNC(=O)c2cc(Cl)cc(NC(=O)OCc3ccccc3)c2)CCO1	> 99.5 µM	> 100 µM
O=C(Nc1cc(-c2cccnc2)ccn1)c1cn([C@H]2CCCNC2)nn1	> 99.5 µM	> 100 µM
CC1=C(c2cc(F)cc(C(=O)Nc3ccc4c(c3)CNC4)c2)CCCC1	> 99.5 µM	> 100 µM
NCc1cccc(NC(=O)c2cc(NC(=O)OCc3ccccc3)ccc2C(F)(F)F)c1	> 99.5 µM	> 100 µM
CC(C)(C)OC(=O)NCc1ccc(I)c(NC(=O)c2cc(Cl)cc(NC(=O)OCc3ccccc3)c2)c1	> 99.5 µM	> 100 µM
O=C1Cc2c(cccc2C(=O)Nc2ccc3c(c2)CNCC3)N1	76.4 µM	> 100 µM
O=C1Cc2c(cccc2C(=O)N[C@H]2CCSC3(CCOCC3)C2)N1	> 99.5 µM	> 100 µM
Cc1oc2nc(-c3cc(Cl)cc(NC(=O)OCc4ccccc4)c3)ccc2c1C(=O)O	16.6 µM	13.7 µM
O=C1COc2cc(C(=O)Nc3ccc4c(c3)CNC4)ccc2N1	> 99.5 µM	> 100 µM
Cc1c(C(=O)Nc2cccc(CN)c2)cc(C2CC2)n1C	> 99.5 µM	> 100 µM
NCCCn1c(C2CC2)cc(C(=O)Nc2cc([C@H]3CCOC3)ccn2)c1C1CC1	> 99.5 µM	> 100 µM
NCc1ccc2c(c1)[C@H]1OCCC[C@H]1[C@H](c1cc(Cl)cc(NC(=O)OCc3ccccc3)c1)N2	17.6 µM and 15.9 µM	33.9 µM and 45.8 µM
Cc1c(C(=O)Nc2cc(-c3cccnc3)ccn2)cc(C2CCC2)n1C	> 99.5 µM	> 100 µM
O=C(Nc1ccc2c(c1)CNC2)[C@H]1C[C@@H]1c1ccccc1	> 99.5 µM	> 100 µM
N#C[C@H](Nc1ccc2c(c1)CNC2)c1cccc2c1CCNC2=O	> 99.5 µM	> 100 µM
C[C@H](NC(=O)c1cc(Cl)cc2[nH]ncc12)c1ccc2c(c1)CNC2	> 99.5 µM	> 100 µM
NCc1cc(NC(=O)c2cc(Cl)cc(NC(=O)OCc3ccccc3)c2)cc(-c2ccc3c(c2)C[C@H](C(=O)O)CO3)c1	77.2 µM	> 100 µM
N=C(N)NCCC[C@H](NC(=O)[C@H](Cc1ccc(CN)cc1)NC(=O)c1ccccc1)B(O)O	720 nM and 583 nM and 818 nM and 732 nM and 585 nM and < 2.49 µM (9×) and 276 nM and 270 nM and 274 nM and 310 nM and 236 nM and 572 nM and 397 nM and 474 nM and 507 nM and 265 nM	305 nM and 257 nM and 222 nM and 304 nM and 397 nM and 347 nM and 311 nM and 370 nM and 386 nM and 288 nM and 401 nM (2×) and 387 nM and 378 nM and 379 nM and 356 nM and 445 nM and 309 nM and 358 nM (2×) and 321 nM and 398 nM and 512 nM and 367 nM and 298 nM and 273 nM and 243 nM and 437 nM and 458 nM and 503 nM and 302 nM and 267 nM and 516 nM and 409 nM and 384 nM and 328 nM and 540 nM and 421 nM
O=C1Cc2c(cccc2C(=O)Nc2ccc3c(c2)CNCCC3)N1	> 99.5 µM	90.1 µM
O=C(Nc1ccc2c(c1)CN[C@H]2[C@H](O)CO)c1cc(F)cc2[nH]ncc12	> 99.5 µM	> 100 µM
CCNC(=O)Nc1cc(Cl)cc(C(=O)Nc2cccc(-c3nn[nH]n3)c2)c1	> 99.5 µM	> 100 µM
CC[C@H](Cc1nnn[nH]1)c1ccc(NC(=O)c2cc(Cl)cc(C#N)c2)cc1	> 99.5 µM	> 100 µM
O=C1Cc2c(cc(F)cc2C(=O)Nc2ccc3c(c2)CNC3)N1	32.8 µM	30 µM and 25.6 µM and 21 µM
O=C(Nc1ccc2c(c1)CN[C@H]2c1ccccc1)c1cc(F)cc2[nH]ncc12	> 99.5 µM	65.9 µM

SMILES	IC50 [1]	IC50 [2]
O=C(NCC(F)F)[C@H](Nc1ccc2c(c1)CNC2)c1cccc(Cl)c1	> 99.5 µM	> 100 µM
O=C1NS(=O)(=O)c2ccc(NC(=O)c3cc(Cl)cc4[nH]ncc34)cc21	> 99.5 µM	> 100 µM
O=C(Nc1cc(Cl)cc(C(=O)NC[C@H]2CCNC3(CC3)C2)c1)OCc1ccccc1	> 99.5 µM	> 100 µM
O=C1Cc2c(cc(Br)cc2C(=O)Nc2ccc3c(c2)C(=O)OC3)N1	> 99.5 µM	> 100 µM
NC[C@]12CC[C@](NC(=O)c3cc(Cl)cc(NC(=O)OCc4ccccc4)c3)(CO1)C2	> 99.5 µM	> 100 µM
CCOc1cccc(-c2ccc(S(=O)(=O)Nc3cc4c(cc3C(=O)O)CCC4)cc2)c1	8.67 µM	11.5 µM
CN(C)[C@H](C(=O)Nc1cccc(CN)c1)c1cc(Cl)cc(Cl)c1	> 99.5 µM	> 100 µM
O=C(Nc1cc(-c2cccnc2)ccn1)c1nc(C2CC2)co1	> 99.5 µM	> 100 µM
CCCOc1ccc2[nH]cc(CN3CCC(c4cscn4)CC3)c2c1	> 99.5 µM	> 100 µM
CNC(=O)[C@H](Nc1cccc(N)n1)c1cc(Cl)cc(CNC(=O)OC(C)(C)C)c1	> 99.5 µM	> 100 µM
CC1(c2nc(C(=O)Nc3cc(-c4cccnc4)ccn3)no2)CC1	> 99.5 µM	> 100 µM
CC(C)(C)OC(=O)NCc1cc(Br)cc(NC(=O)c2cc(Cl)cc(NC(=O)OCc3ccccc3)c2)c1	> 99.5 µM	> 100 µM
NC1(c2cccc(NS(=O)(=O)c3ccc(Oc4ccccc4Cl)cc3)c2)CCOCC1	> 99.5 µM	> 100 µM
NCc1ccccc1Oc1ccc(S(=O)(=O)Nc2ccc(Cl)cc2C(=O)NCC(F)(F)F)cc1	> 99.5 µM	> 100 µM
Cn1cc(CNC(=O)[C@H](Nc2ccc3c(c2)CNC3)c2cc(Cl)cc(C3CC3)c2)cn1	> 99.5 µM	> 100 µM
O=C(O)Cc1c[nH]c2cc(-c3cc(Cl)cc(NC(=O)OCc4ccccc4)c3)ccc12	13.3 µM	9.67 µM
O=C(Nc1ccc2c(c1)CNC2)c1cc(Cl)cc2ccncc12	> 99.5 µM	> 100 µM
CC(C)Cc1nc2c(C(=O)Nc3ccc4c(c3)CNC4)cc(Br)cc2[nH]1	56.2 µM	> 100 µM
Cc1ccc(NC(=O)c2cc(C3CC3)n(C)c2C)cc1CN	> 99.5 µM	> 100 µM
O=C(O)COc1cccc(NC(=O)c2cc(Cl)cc(NC(=O)OCc3ccccc3)c2)c1	45.5 µM	28 µM and 22.5 µM
O=C1Cc2c(cccc2C(=O)N[C@H]2CC[C@@H](n3ccnn3)CC2)N1	> 99.5 µM	> 100 µM
O=C1OCc2ccc(NC(=O)[C@H]3CNCc4[nH]ncc43)cc21	> 99.5 µM	> 100 µM
O=C(O)c1cccc(CCc2cc(Cl)cc3[nH]ncc23)c1	> 99.5 µM	> 100 µM
O=C(Nc1ccc2c(c1)CNC2)c1cccc2ncccc12	> 99.5 µM	> 100 µM
O=C(Nc1ccc2c(c1)CNC2)c1cc(Cl)nc2[nH]ncc12	> 99.5 µM	> 100 µM
Cc1cc(-c2cc(F)cc(C(=O)Nc3ccc4c(c3)CNC4)c2)[nH]n1	> 99.5 µM	> 100 µM
CN(C)[C@@H]1CCC[C@H](C(=O)Nc2cccc(CN)c2)C1	> 99.5 µM	> 100 µM

SMILES	IC50 [1]	IC50 [2]
NCc1cc(C=C2CC(C(=O)O)C2)cc(NC(=O)c2cc(Cl)cc(NC(=O)OCc3ccccc3)c2)c1 (stereo not drawn)	> 99.5 µM	> 100 µM
Cc1c(C(=O)Nc2cccc(-c3ccoc3)c2)cc(C2CC2)n1C	> 99.5 µM	> 100 µM
O=C(Nc1cc(-c2cccnc2)ccn1)c1cnc(C2CC2)s1	> 99.5 µM	> 100 µM
Cn1cc2cc(C#N)cc(-c3ccc4[nH]c(C(=O)O)cc4c3)c2n1	> 99.5 µM	> 100 µM
Cc1cc(C(=O)Nc2cccc(CN)c2)c(NC(=O)[C@H]2CCCO2)s1	> 99.5 µM	> 100 µM
NCc1cccc(NC(=O)[C@H](NC(=O)OCc2ccccc2)C2CCN(CCc3ccccc3)CC2)c1	> 99.5 µM	> 100 µM
Cc1ccc(-c2nnn[nH]2)cc1NC(=O)c1cc(Cl)cc(NC(=O)OCc2ccccc2)c1	18.4 µM	9.21 µM and 13.1 µM
O=C(Nc1cc(Cl)cc(C(=O)Nc2ccc3c(c2)OCO3)c1)OCc1ccccc1	> 99.5 µM	> 100 µM
COc1cc(Cl)cc([C@H](Nc2ccc3c(c2)CNC3)C(=O)NCC(F)F)c1	> 99.5 µM	> 100 µM
CC1(C)CN(C(=O)Nc2ccc3c(c2)CNC3)CC(F)(F)C1	> 99.5 µM	> 100 µM
O=C(Nc1ccc2c(c1)CNC2)c1cc(Br)cc2[nH]ncc12	> 99.5 µM	> 100 µM
CCc1onc(-c2ccc(Br)cc2)c1C(=O)Nc1cccc(CN)c1	> 99.5 µM	> 100 µM
O=C(Nc1ccc(-n2nn[nH]c2=O)cc1)c1cc(Cl)cc(C2CC2)c1	> 99.5 µM	62.2 µM
CO[C@H]1C[C@H](n2cc3c(C(=O)Nc4ccc5c(c4)CNC5)cc(Cl)cc3n2)C1	> 99.5 µM	> 100 µM
C[C@@H](N)c1ccc(NC(=O)c2cc(Cl)cc3[nH]ncc23)cc1	> 99.5 µM	> 100 µM
NCc1ccccc1C(=O)Nc1ccc2c(c1)C(=O)OC2	> 99.5 µM	> 100 µM
NCc1cccc(NC(=O)[C@@H](NC(=O)OCc2ccccc2)C2CCN(C3CCOCC3)CC2)c1	> 99.5 µM	> 100 µM
C[C@@H]1CNC[C@H]1c1ccc(NC(=O)c2ccc3c(c2)SCCN3)cc1	> 99.5 µM	> 100 µM
O=C(Nc1ccc(C2CCNCC2)cc1)c1cc(Cl)cc2[nH]ncc12	> 99.5 µM	> 100 µM
COc1cc(OC)cc([C@H]2CCN(C(=O)Nc3ccc4c(c3)CNC4)C2)c1	> 99.5 µM	> 100 µM
O=C(Nc1cc(-c2cccnc2)ccn1)c1cn2c(n1)CCC2	> 99.5 µM	> 100 µM
CC(C)c1nc2c(C(=O)Nc3cccc(CN)c3)cccc2[nH]1	> 99.5 µM	> 100 µM
COc1cc(Br)cc(C(=O)Nc2ccc3c(c2)CNC3)c1	> 99.5 µM	> 100 µM
NCc1cccnc1NS(=O)(=O)c1ccc(Oc2ccccc2Cl)cc1	> 99.5 µM	> 100 µM
Cc1c(C(=O)Nc2cc(-c3cccnc3)ccn2)cc(C2CCCC2)n1C	> 99.5 µM	> 100 µM
